# Measurements published in BindingDB's records for doi:10.1021/jm020994z (Universit&#224, 2003).
# Columns and labels:
# [1] = Binding affinity of compound was tested for Sigma receptor type 1
# [2] = target: Sigma intracellular receptor 2 (Rattus norvegicus); experiment: Binding affinity of compound was tested for Sigma receptor type 2
smiles,measurement,setting,value
O=C(CCCCCN1CCN(c2noc3ccccc23)CC1)c1ccccc1O [6-(4-Benzo[d]isoxazol-3-yl-piperazin-1-yl)-1-(2-hydroxy-phenyl)-hexan-1-one],Ki,[1],61 nM
COc1ccccc1C(=O)CCCCCN1CCN(c2noc3ccccc23)CC1 [6-(4-Benzo[d]isoxazol-3-yl-piperazin-1-yl)-1-(2-methoxy-phenyl)-hexan-1-one],Ki,[2],147 nM
same,Ki,[1],4300 nM
